Measurements from patent US20070082883A1, “HIV protease inhibitors” (THE BOARD OF TRUSTEES OF THE UNIVERSITY OF ILLINOIS, priority 2002, published 2007).

Molecular target: T1, HIV-1 protease (Human immunodeficiency virus type 1 group M subtype B, UniProt P04585)
T1 construct: made in house; host or cells: E. coli BL21 (dE3)pLysS, pET30a vector
Experiment: HIV-1 Protease Inhibition Assay
Format: biochemical
Excerpt: Assays of the dose-response effect of inhibitor compounds can be described as a curve expressing a degree of inhibition as a function of concentration. The curve theoretically passes through a point at which the concentration is sufficient to reduce activity of the HIV protease enzyme to a level that is 50% that of the difference between minimal and maximal enzyme activity in the assay.
HIV-1 Protease Inhibition Assay
The HIV-1 protease gene was subcloned into the pET30a vector (Novagen) and then transformed into BL21 (dE3)pLysS cells for protein expression. Protein expression and purification were followed according to Tang's procedure (Hong et al., Biochemistry, 1996, 35, 10627-10633). […] The inclusion body containing some bacterial proteins was thoroughly washed by using TRITON X-100, solubilized in […] and passed through the Q-sepharose column to remove the bacterial proteins which interfered with subsequent refolding steps. HIV-1 protease was refolded from the urea to an active form by dialysis. As a final step, gel filtration chromatography was used to remove impurities after refolding. Activities of purified HIV-1 protease were examined using a fluorogenic substrate, 2-aminobenzoyl-Thr-Ile-Nle-Phe(pNO2)-Gln-Arg-NH2 (Novabiochem). […] In the condition of So<<Km, v=Eo(kcat/Km)So, where Eo is the total enzyme concentration, and So is the substrate concentrate. […] Assays are carried out as described by Toth and Marshall (Toth et al., Int. J. Pept. Protein Res., 1990, 36, 544-50).

| SMILES | IC50 (fluorogenic substrate assay) [pM] | Ki (fluorogenic substrate assay) [nM] | IC50 (cells marked (pM) in a column headed nM) [pM] |
| --- | --- | --- | --- |
| CC(C)CN(C[C@@H](O)[C@H](Cc1ccccc1)NC(=O)O[C@H]1C[C@H]2CCO[C@H]2C1)S(=O)(=O)c1cncc([N+](=O)[O-])c1 [Compound 171] | 14000 | 4.3 |  |
| COc1ccc(S(=O)(=O)NN(CC(C)C)C[C@@H](O)[C@H](Cc2ccccc2)NC(=O)O[C@@H]2CC3CCO[C@@H]3C2)cc1 (stereo partly shown) [Compound 186] | 10000 | 3.2 |  |
| COc1ccc(S(=O)(=O)N(CC(C)C)C[C@H](O)[C@H](Cc2ccc(OCc3ccccc3)cc2)NC(=O)OC(C)(C)C)cc1 [Compound 209] | 30000 | 9.3 |  |
| Cc1ccc(S(=O)(=O)OCc2ccc(S(=O)(=O)N(CC(C)C)C[C@@H](O)[C@H](Cc3ccccc3)NC(=O)OC3CO[C@H]4OCCC34)cc2)cc1 (stereo partly shown) [Compound 117] | 2400 | 0.74 |  |
| COc1ccc(S(=O)(=O)N(N)C[C@@H](O)[C@H](Cc2ccccc2)NC(=O)O[C@H]2CO[C@H]3OCCC32)cc1 (stereo partly shown) [Compound 189] | 55000 | 17 |  |
| COc1ccc(S(=O)(=O)N(C[C@@H](O)[C@H](Cc2ccccc2)NC(=O)O[C@H]2CO[C@H]3OCCC32)C2CN(C(=O)OC(C)(C)C)C2)cc1 (stereo partly shown) [Compound 200] | 7600 | 2.3 |  |
| CC(C)CN(C[C@@H](O)[C@H](Cc1ccccc1)NC(=O)OC(C)(C)C)S(=O)(=O)c1cncc([N+](=O)[O-])c1 [Compound 163] | 115000 | 36 |  |
| CC(C)CN(C[C@@H](O)[C@H](Cc1ccccc1)NC(=O)OC(C)(C)C)C1CC2(CCCC2)NC1=O (stereo partly shown) [Compound 528b] | 386000 |  |  |
| CC(C)CN(C[C@@H](O)[C@H](Cc1ccccc1)NC(=O)OC1CO[C@H]2OCCC12)S(=O)(=O)c1ccc(CN)cc1 (stereo partly shown) [Compound 118] | 2700 | 0.9 |  |
| CC(C)CN(C[C@@H](O)[C@H](Cc1ccccc1)NC(=O)OC1CO[C@H]2OCCC12)S(=O)(=O)c1cncc([N+](=O)[O-])c1 (stereo partly shown) [Compound 165] | 3500 | 1 |  |
| Cc1ccc(S(=O)(=O)N(CC(C)C)C[C@@H](O)[C@H](CC2CCN(C(=O)c3ccccc3)CC2)NC(=O)OC2CO[C@H]3OCCC23)cc1 (stereo partly shown) [Compound 146] | 1800 |  |  |
| COc1ccc(S(=O)(=O)N(CC(C)C)C[C@@H](O)C(Cc2ccccc2)NC(=O)O[C@H]2CO[C@@H]3OCCC[C@@H]32)cc1 (stereo partly shown) [Compound 253] | 1000 |  |  |
| CC(C)CN(C[C@@H](O)[C@H](Cc1ccccc1)NC(=O)OC1CCCC12CCCO2)S(=O)(=O)c1cccc(O)c1 (stereo partly shown) [Compound 75] | 6700 | 2.1 |  |
| COc1ccc(S(=O)(=O)N(C[C@H]2CCC(=O)N2)C[C@@H](O)[C@H](Cc2ccccc2)NC(=O)OC2CO[C@H]3OCC[C@@H]23)cc1 (stereo partly shown) [Compound 273] |  |  | 17 |
| COc1ccc(S(=O)(=O)N(CC(C)C)C[C@@H](O)[C@H](Cc2ccc(OCc3ccccc3)cc2)NC(=O)OC(C)(C)C)cc1 [Compound 207] | 96000 | 30 |  |
| CC(C)CN(C[C@@H](O)[C@H](Cc1ccccc1)NC(=O)O[C@@H]1CC2CCO[C@@H]2C1)S(=O)(=O)c1ccc(/C=N/O)cc1 (stereo partly shown) [Compound 256] | 1700 |  |  |
| O=C1CC[C@@H](CN(C[C@@H](O)[C@H](Cc2ccccc2)NC(=O)OC2CO[C@H]3OCC[C@@H]23)S(=O)(=O)c2ccc([N+](=O)[O-])cc2)N1 (stereo partly shown) [Compound 275] | 370 |  |  |
| CC(C)CN(C[C@@H](O)[C@H](Cc1ccccc1)NC(=O)OC1CC2CCO[C@@H]2C1)S(=O)(=O)c1ccc(OC2CCCCO2)c(OC2CCCCO2)c1 (stereo partly shown) [Compound 87] | 30000 | 9.3 |  |
| CC(C)CN(C[C@@H](O)[C@H](Cc1ccccc1)NC(=O)O[C@H]1CCOC1)S(=O)(=O)c1cncc([N+](=O)[O-])c1 [Compound 169] | 7100 | 22 |  |
| COc1ccc(S(=O)(=O)N(C[C@@H](O)[C@H](Cc2ccccc2)NC(=O)O[C@@H]2CC3CCO[C@@H]3C2)C2CN(C)C2)cc1 (stereo partly shown) [Compound 204] | 5600 | 1.7 |  |
| CC(C)CN(C[C@@H](O)[C@H](Cc1ccccc1)NC(=O)O[C@H]1CO[C@H]2OCC[C@H]21)[C@H]1CCNC1=O [Compound 249] |  | 37 |  |
| COc1ccc(S(=O)(=O)N(C[C@H]2CCC(=O)N2)C[C@@H](O)[C@H](Cc2ccccc2)NC(=O)OC(C)(C)C)cc1 [Compound 271, ((1S)-Benzyl-(2R)-hydroxy-3-[(4-methoxybenzene-sulfonyl)-(5-oxopyrrolidin-(2R)-ylmethyl)amino]-propyl)carbamic acid tert-butyl ester] | 3000 |  |  |
| Cc1ccc(S(=O)(=O)N(CCN(C)C)C[C@@H](O)[C@H](Cc2ccccc2)NC(=O)O[C@H]2C[C@H]3CCO[C@H]3C2)cc1CO [Compound 159] | 204000 | 63 |  |

| SMILES | IC50 (fluorogenic substrate assay) [pM] | Ki (fluorogenic substrate assay) [nM] | IC50 (cells marked (pM) in a column headed nM) [pM] |
| --- | --- | --- | --- |
| O=C(N[C@@H](Cc1ccccc1)[C@H](O)CN1CCCCCCCCCOc2ccccc2COC1=O)O[C@@H]1CC2CCO[C@@H]2C1 (stereo partly shown) [Compound 228] | 2.2e+06 | 638 |  |
| COc1ccc(S(=O)(=O)N(C[C@@H](O)[C@H](Cc2ccccc2)NC(=O)O[C@H]2CO[C@H]3OCCC32)NC(=O)OC(C)(C)C)cc1 (stereo partly shown) [Compound 188] | 3900 | 1.2 |  |
| O=C(N[C@@H](Cc1ccccc1)[C@H](O)CN1CCCCCCCCOc2cccc(c2)S1(=O)=O)O[C@H]1CO[C@H]2OCCC21 (stereo partly shown) [Compound 234] | 7300 | 2.3 |  |
| C=CCCCCOc1cccc(S(=O)(=O)N(CCCCC=C)C[C@@H](O)[C@H](Cc2ccccc2)NC(=O)O[C@@H]2CC3CCO[C@@H]3C2)c1 (stereo partly shown) [Compound 225i] | 17000 | 5.3 |  |
| CC(C)CN(C[C@@H](O)[C@H](Cc1ccccc1)NC(=O)O[C@H]1CCOC1)S(=O)(=O)c1cncc(N)c1 [Compound 170] | 2400 | 0.74 |  |
| O=C(N[C@@H](Cc1ccccc1)[C@H](O)CN(CCN1CCOCC1)S(=O)(=O)c1ccc(Cl)c(O)c1)OC1CC2CCO[C@@H]2C1 (stereo partly shown) [Compound 155] | 16000 | 4.9 |  |
| CC(C)CN(C[C@@H](O)[C@H](Cc1ccccc1)NC(=O)OC1CO[C@H]2OCCC12)S(=O)(=O)c1cccc(CO)c1 (stereo partly shown) [Compound 114] | 1100 |  |  |
| CC(C)(C)NC(=O)[C@@H]1C[C@@H]2CCCC[C@@H]2CN1C[C@@H](O)[C@H](Cc1ccccc1)NC(=O)OC1CCCC12CCCO2 (single isomer, unassigned) [Compound 145] | 96000 |  |  |
| CC(C)CN(C[C@@H](O)[C@H](Cc1ccccc1)NC(=O)OC1CC2CCO[C@@H]2C1)S(=O)(=O)c1ccc(C=NO)cc1 (stereo partly shown) [Compound 128] | 1700 | 0.53 |  |
| CC(C)CN(C[C@@H](O)[C@H](Cc1ccccc1)NC(=O)OC1CC2CCO[C@@H]2C1)S(=O)(=O)c1ccc(CN(C)C)cc1 (stereo partly shown) [Compound 127] | 50000 |  |  |
| O=C(N[C@@H](Cc1ccccc1)[C@H](O)CN1CCCCCCCC(O)c2cccc(c2)S1(=O)=O)O[C@@H]1CC2CCO[C@@H]2C1 (stereo partly shown) [Compound 238] | 4000 | 1.2 |  |
| CC(C)CN(C[C@@H](O)[C@H](Cc1ccccc1)NC(=O)O[C@H]1CCOC1)S(=O)(=O)c1ccc(F)c(N)c1 [Compound 182] | 4600 | 1.4 |  |
| COc1ccc(S(=O)(=O)N(CC(C)C)C[C@@H](O)[C@H](Cc2ccccc2)NC(=O)O[C@H]2CC[C@]3(CCCO3)C2)cc1 [Compound 145d] | 4600 |  |  |
| CC(C)CN(C[C@@H](O)[C@H](Cc1ccccc1)NC(=O)O[C@H]1C[C@H]2CCO[C@H]2C1)S(=O)(=O)c1cncc(N)c1 [Compound 172] | 5100 | 1.6 |  |
| CC(C)CN(C[C@@H](O)[C@H](Cc1ccccc1)NC(=O)O[C@H]1CCOC1)S(=O)(=O)c1ccc(F)c([N+](=O)[O-])c1 [Compound 181] | 145000 | 45 |  |
| C=CCCCCN(C[C@@H](O)[C@H](Cc1ccccc1)NC(=O)O[C@H]1CO[C@H]2OCCC21)S(=O)(=O)c1cccc(OCC=C)c1 (stereo partly shown) [Compound 229] | 9100 | 2.1 |  |
| COc1ccc(S(=O)(=O)N(C[C@@H](O)[C@H](Cc2ccccc2)NC(=O)O[C@H]2C[C@H]3CCO[C@H]3C2)C2CN(C)C2)cc1 [Compound 205] | 87000 | 27 |  |
| O=C1CC[C@H](CN(C[C@@H](O)[C@H](Cc2ccccc2)NC(=O)OC2CC[C@H]3OCC[C@@H]23)S(=O)(=O)c2ccc([N+](=O)[O-])cc2)N1 (stereo partly shown) [Compound 279] | 340 |  |  |
| CC(C)CN(C[C@@H](O)[C@H](Cc1ccccc1)NC(=O)OC1CC2CCO[C@@H]2C1)S(=O)(=O)c1cncc([N+](=O)[O-])c1 (stereo partly shown) [Compound 167] | 4500 | 1.4 |  |
| CC(C)CN(C[C@@H](O)[C@H](Cc1ccccc1)NC(=O)O[C@H]1CO[C@H]2OCC[C@H]21)[C@@H]1C(=O)Nc2ccccc21 [Compound 250] |  | 1 |  |
| COc1ccc(S(=O)(=O)N(CC(C)C)C[C@@H](O)[C@H](Cc2ccccc2)NC(=O)OC2CC[C@@]3(CCCO3)C2)cc1 (stereo partly shown) [Compound 145c] | 15000 |  |  |
| Cc1ccc(S(=O)(=O)N(CC(C)C)C[C@@H](O)[C@H](Cc2ccccc2)NC(=O)OC2CC3CCO[C@@H]3C2)cc1 (stereo partly shown) [Compound 131] | 1400 |  |  |
| CC(C)CN(C[C@@H](O)[C@H](Cc1ccccc1)NC(=O)OC1CC2CCO[C@@H]2C1)S(=O)(=O)c1cncc(N)c1 (stereo partly shown) [Compound 168] | 2500 | 0.8 |  |
